IC50, Angiogenesis inhibition and Cytotoxicity data for ten compounds are collected here from EP4289427A1, “DIHYDRO[1,8]NAPHTHYRIDIN-7-ONE AND PYRIDO[3,2-B][1,4]OXAZIN-3-ONE FOR USE IN TREATING CANCER, AND METASTASES IN PARTICULAR” (Anagenesis Biotechnologies, priority 2022, dated 2023).

Molecules are shown by their SMILES.

The subject of one data set is HUVECs. In words: Tube formation assay (anti-angiogenic activity). The conditions noted are these: for IC50: Homo sapiens, HUVEC. In kind it is cell-based, human. The text has this:
Angiogenesis is a phenomenon that includes different processes, such as endothelial cell proliferation, migration and differentiation that lead to the formation of new blood vessels. Tube formation assay is a standard in vitro test to assess angiogenesis: briefly, human Umbilical Vein Endothelial cells (hereafter "HUVECs") cultivated on a gelled basement matrix spontaneously proliferate, migrate and differentiate to form tube-like structures, that appear elongated and that connect to each other to form a network.
HUVECs were cultivated in Endothelial Cell Growth Medium (cat.no. C-22010 from Promocell) supplemented with 1% PenStrep (hereafter "HUVEC medium"). On day 0, HUVECs were harvested and transferred into a 384-well plate precoated with 10 µl/well of Cultrex UltiMatrix Reduced Growth factor basement membrane (cat.no. BME001-10 from BioTechne), according to the manufacturer's instructions, at a density of 5000 cells/well in HUVEC medium. Compounds to be tested were then added onto the cells and incubated for 16 to 18 hours at 37°C. After this incubation period, the cells were stained with calcein-AM (cat.no. 10462052 from Fisher Scientific) and pictures were acquired using a confocal fluorescent microscope (IXM from Molecular Devices). Tube formation was measured with MetaXpress® Software.

The next data set concerns MDA-MB-231 cells. In words: Cytotoxicity assay (CellTiter-Glo 2.0) on MDA-MB-231 cells. Format: cell-based, Human. As to conditions: incubation 3 days; for IC50: Homo sapiens, 72 h. The protocol:
(§1) Cytotoxicity assays consist in treating cells with compounds and assessing remaining viability after a defined incubation time, depending on the cell line. CellTiter-Glo® 2.0 reagent allows viability measurement by quantification of ATP present, which is an indicator of metabolically active cells.
(§2) The cancer cell lines were cultivated in their respective growth medium (see tables 6a and 6b). On day 0 of the cytotoxicity assay, the cells were harvested and seeded into a 384-well plate at a defined density in their respective growth medium (see tables 6a and 6b). Compounds to be tested were then added onto the cells and incubated for a defined duration (see tables 6a and 6b). Following incubation, CellTiter-Glo® 2.0 reagent (cat.no. G9241 from Promega) was added into the wells (vol/vol, according to the manufacturer's recommendations), plates were gently shaken and incubated for 10 minutes in the dark at room temperature. Bioluminescence was then measured with a multimode plate reader (Victor Nivo from Perkin Elmer), and cell viability and relative IC50 were determined. Table 6a: Cancer cell characteristics, culture and cytotoxic assay conditions
Background: In ATP-based viability assays light output follows the ATP content of the culture.

A further data set deals with 4T1 cells. In words: Cytotoxicity assay (CellTiter-Glo 2.0) on 4T1 cells. Format: cell-based, Mouse. The conditions noted are these: incubation 2 days; for IC50: Mus musculus, 48 h. The procedure: as §1, §2
The next data set deals with EoL-1 cells. In words: Cytotoxicity assay (CellTiter-Glo 2.0) on EoL-1 cells. Format: cell-based, Human. As to conditions: incubation 1 day; for IC50: Homo sapiens, EOL1, 24 h. The procedure: as §1, §2
A further data set relates to RD cells. In words: Cytotoxicity assay (CellTiter-Glo 2.0) on RD cells. In kind it is cell-based, Human. The conditions noted are these: for IC50: Homo sapiens. The protocol: as §1, §2

For the compound `CC(C)(C)c1cc(NC(=O)Nc2ccc(Oc3ccnc4c3OCC(=O)N4)cc2C(F)(F)F)n(-c2cccc(CN3CCOCC3)c2)n1` [Compound 044, 1-[5-tert-butyl-2-[3-(morpholinomethyl)phenyl]pyrazol-3-yl]-3-[4-[(3-oxo-4H-pyrido[3,2-b][1,4]oxazin-8-yl)oxy]-2-(trifluoromethyl)phenyl]urea], the IC50 with HUVECs (incubation 16 to 18 hours) is 100 to 500 nM; with MDA-MB-231 cells, 5000 to 10000 nM; in the data set with 4T1 cells, 1000 to 5000 nM; in the data set with EoL-1 cells it was 10 to 100 nM; with RD cells (48 h, 2 day-treatment) it was at least 10000 nM; in the data set on RD cells (96 h, 4 day-treatment), at least 10000 nM. The Angiogenesis inhibition result in the data set with HUVECs (incubation 16 to 18 hours) is recorded as “+++ (angiogenesis inhibition ≥ 80%)”. The Cytotoxicity entry is on record as “+ (20 % ≤ cytotoxicity < 50%)” in the data set with MDA-MB-231 cells; “+++ (cytotoxicity ≥ 85%)” in the data set on 4T1 cells; “++ (50% ≤ cytotoxicity < 85%)” with EoL-1 cells; “+ (20 % ≤ cytotoxicity < 50%)” with RD cells (2 day-treatment); “+ (20 % ≤ cytotoxicity < 50%)” in the data set with RD cells (4 day-treatment).

`CC(C)(C)c1cc(NC(=O)Nc2ccc(Oc3ccnc4c3CCC(=O)N4)cc2C(F)(F)F)n(-c2cccc(F)c2)n1` [Compound 015, 1-[5-tert-butyl-2-(3-fluorophenyl)pyrazol-3-yl]-3-[4-[(7-oxo-6,8-dihydro-5H-1,8-naphthyridin-4-yl)oxy]-2-(trifluoromethyl)phenyl]urea]: the IC50 in the data set with HUVECs (incubation 16 to 18 hours) was below 100 nM; in the data set with MDA-MB-231 cells, 1000 to 5000 nM; in the data set on 4T1 cells, below 1000 nM; in the data set with EoL-1 cells it was 10 to 100 nM; with RD cells (48 h, 2 day-treatment), 5000 to 10000 nM; in the data set with RD cells (96 h, 4 day-treatment), 1000 to 5000 nM. The Angiogenesis inhibition entry in the data set with HUVECs (incubation 16 to 18 hours) is given as “+++ (angiogenesis inhibition ≥ 80%)”. The Cytotoxicity entry is “++ (50% ≤ cytotoxicity < 85%)” with MDA-MB-231 cells; “+++ (cytotoxicity ≥ 85%)” in the data set on 4T1 cells; “++ (50% ≤ cytotoxicity < 85%)” with EoL-1 cells; “++ (50% ≤ cytotoxicity < 85%)” in the data set on RD cells (2 day-treatment); “++ (50% ≤ cytotoxicity < 85%)” in the data set on RD cells (4 day-treatment).

`Cc1ccc(F)c(NC(=O)Nc2ccc(-c3cccc4[nH]nc(N)c34)cc2)c1` [Linifanib, reference compound]: in the data set on HUVECs (commercial kinase inhibitors), the IC50 was below 100 nM and the Angiogenesis inhibition entry was “+ (50% > angiogenesis inhibition ≥ 20%)”.

As for `COc1cc2nccc(Oc3ccc(NC(=O)Nc4cc(C)on4)c(Cl)c3)c2cc1OC` [Tivozanib, reference compound], the IC50 in the data set on HUVECs (commercial kinase inhibitors) is 100 to 500 nM; in the data set on MDA-MB-231 cells (commercial kinase inhibitors), 5000 to 10000 nM; in the data set with 4T1 cells (commercial kinase inhibitors) it was 5000 to 10000 nM; with RD cells (48 h, 2 day-treatment, commercial kinase inhibitors) it was at least 10000 nM; with RD cells (96 h, 4 day-treatment, commercial kinase inhibitors), at least 10000 nM. Besides, the Angiogenesis inhibition entry with HUVECs (commercial kinase inhibitors) is “+ (50% > angiogenesis inhibition ≥ 20%)”. Further, the Cytotoxicity entry in the data set on MDA-MB-231 cells (commercial kinase inhibitors) is listed as “++ (50 % ≤ cytotoxicity < 85 %)”; in the data set on 4T1 cells (commercial kinase inhibitors), “+++ (cytotoxicity ≥ 85 %)”; in the data set on RD cells (2 day-treatment, commercial kinase inhibitors), “- (cytotoxicity < 20 %)”; in the data set with RD cells (4 day-treatment, commercial kinase inhibitors), “- (cytotoxicity < 20 %)”.

In the case of `CSc1cc(Oc2ccnc3c2CCC(=O)N3)ccc1NC(=O)Nc1cc(C(C)(C)C)nn1-c1cccc(Cl)c1` [Compound 003, 1-(3-(tert-butyl)-1-(3-chlorophenyl)-1H-pyrazol-5-yl)-3-(2-(methylthio)-4-((7-oxo-5,6,7,8-tetrahydro-1,8-naphthyridin-4-yl)oxy)phenyl)urea], the half-inhibitory concentration (IC50) was 1000 to 5000 nM with MDA-MB-231 cells; below 1000 nM with 4T1 cells; 1000 to 5000 nM in the data set with RD cells (48 h, 2 day-treatment); 5000 to 10000 nM with RD cells (96 h, 4 day-treatment). Moreover, the Cytotoxicity entry is on record as “++ (50% ≤ cytotoxicity < 85%)” in the data set with MDA-MB-231 cells, “+++ (cytotoxicity ≥ 85%)” with 4T1 cells, “+ (20 % ≤ cytotoxicity < 50%)” with RD cells (2 day-treatment) and “+ (20 % ≤ cytotoxicity < 50%)” in the data set with RD cells (4 day-treatment).

As for `COc1cc2nccc(Oc3ccc(NC(=O)NC4CC4)c(Cl)c3)c2cc1C(N)=O` [Lenvatinib, reference compound], the IC50 with HUVECs (commercial kinase inhibitors) was below 100 nM; with MDA-MB-231 cells (commercial kinase inhibitors), at least 10000 nM; in the data set with 4T1 cells (commercial kinase inhibitors) it was 1000 to 5000 nM; in the data set with EoL-1 cells (commercial kinase inhibitors) it was 1 to 10 nM. Also, the Angiogenesis inhibition entry in the data set on HUVECs (commercial kinase inhibitors) is reported as “++ (80% > angiogenesis inhibition ≥ 50%)”. Besides, the Cytotoxicity entry in the data set with MDA-MB-231 cells (commercial kinase inhibitors) is listed as “- (cytotoxicity < 20 %)”; in the data set with 4T1 cells (commercial kinase inhibitors), “+ (20 % ≤ cytotoxicity < 50 %)”; in the data set on EoL-1 cells (commercial kinase inhibitors), “+++ (cytotoxicity ≥ 85%)”.

`CC(C)(C)c1coc(NC(=O)Nc2ccc(Oc3ccnc4c3CCC(=O)N4)cc2C(F)(F)F)n1` [Compound 036]: the IC50 is 5000 to 10000 nM in the data set on MDA-MB-231 cells; at least 10000 nM in the data set with 4T1 cells; at least 100 nM in the data set with EoL-1 cells; 1000 to 5000 nM in the data set on RD cells (48 h, 2 day-treatment); 1000 to 5000 nM in the data set on RD cells (96 h, 4 day-treatment). Besides, the Cytotoxicity entry with MDA-MB-231 cells is “+ (20 % ≤ cytotoxicity < 50%)”; with 4T1 cells it was “- (cytotoxicity < 20%)”; in the data set on EoL-1 cells, “+ (20 % ≤ cytotoxicity < 50%)”; in the data set on RD cells (2 day-treatment), “+ (20 % ≤ cytotoxicity < 50%)”; in the data set on RD cells (4 day-treatment), “- (cytotoxicity < 20%)”.

Regarding `CC(C)(C)c1cc(NC(=O)Nc2ccc(Oc3ccnc4c3CCC(=O)N4)cc2C(F)(F)F)n(-c2ccc(F)cc2F)n1` [Compound 029, 1-[5-tert-butyl-2-(2,4-difluorophenyl)pyrazol-3-yl]-3-[4-[(7-oxo-6,8-dihydro-5H-1,8-naphthyridin-4-yl)oxy]-2-(trifluoromethyl)phenyl]urea], the IC50 in the data set on HUVECs (incubation 16 to 18 hours) is 100 to 500 nM; in the data set on MDA-MB-231 cells, 5000 to 10000 nM; with 4T1 cells, 1000 to 5000 nM; in the data set on EoL-1 cells, 10 to 100 nM. Further, the Angiogenesis inhibition result with HUVECs (incubation 16 to 18 hours) is listed as “++ (80% > angiogenesis inhibition ≥ 50%)”. Further, the Cytotoxicity result was “+ (20 % ≤ cytotoxicity < 50%)” in the data set on MDA-MB-231 cells, “++ (50% ≤ cytotoxicity < 85%)” in the data set with 4T1 cells and “+++ (cytotoxicity ≥ 85%)” in the data set with EoL-1 cells.

In the case of `CC(C)(C)c1cc(NC(=O)Nc2ccc(Oc3ccnc4c3OCC(=O)N4)cc2C(F)(F)F)n(-c2ccc(CCN3CCOCC3)cc2)n1` [Compound 053, 1-[5-tert-butyl-2-[4-(2-morpholinoethyl)phenyl]pyrazol-3-yl]-3-[4-[(3-oxo-4H-pyrido[3,2-b][1,4]oxazin-8-yl)oxy]-2-(trifluoromethyl)phenyl]urea], the half-maximal inhibitory concentration (IC50) is below 100 nM in the data set with HUVECs (incubation 16 to 18 hours), 1000 to 5000 nM in the data set with MDA-MB-231 cells, below 1000 nM in the data set with 4T1 cells and 10 to 100 nM in the data set on EoL-1 cells. Also, the Angiogenesis inhibition entry with HUVECs (incubation 16 to 18 hours) is “+++ (angiogenesis inhibition ≥ 80%)”. For the same compound, the Cytotoxicity result in the data set with MDA-MB-231 cells is listed as “++ (50% ≤ cytotoxicity < 85%)”; in the data set with 4T1 cells, “+++ (cytotoxicity ≥ 85%)”; in the data set on EoL-1 cells, “+++ (cytotoxicity ≥ 85%)”.

As to `CSc1cc(Oc2ccnc3c2OCC(=O)N3)ccc1NC(=O)Nc1ncc(C(C)(C)C)o1` [Compound 025], in the data set with EoL-1 cells, the IC50 is below 1 nM and the Cytotoxicity result was “+++ (cytotoxicity ≥ 85%)”.

What is called IC50 is the concentration needed to halve the response being measured. Higher therefore signals lower potency.
